Assay results as given in patent US6620963B1, “TRICYCLO[6.2.202,7]DODECA-2(7),3,5-TRIEN-4-CARBONYLAMINO-PHENYL AND TRICYCLO[6.2.202,7]DODECA-2(7),3,5-TRIEN-4-CARBONYLAMINO-HETEROARYL AND RELATED COMPOUNDS HAVING RARα RECEPTOR SELECTIVE BIOLOGICAL ACTIVITY” (Allergan, Inc., priority 2002, dated 2003).

How the values were obtained:
RARγ = molecular target: T1, RARγ (Homo sapiens, UniProt P13631); experiment: ligand binding assay, RARγ; conditions: RARγ receptor subtype; read-out: RAR Kd (nM) γ
T1 sequence (P13631 1-454): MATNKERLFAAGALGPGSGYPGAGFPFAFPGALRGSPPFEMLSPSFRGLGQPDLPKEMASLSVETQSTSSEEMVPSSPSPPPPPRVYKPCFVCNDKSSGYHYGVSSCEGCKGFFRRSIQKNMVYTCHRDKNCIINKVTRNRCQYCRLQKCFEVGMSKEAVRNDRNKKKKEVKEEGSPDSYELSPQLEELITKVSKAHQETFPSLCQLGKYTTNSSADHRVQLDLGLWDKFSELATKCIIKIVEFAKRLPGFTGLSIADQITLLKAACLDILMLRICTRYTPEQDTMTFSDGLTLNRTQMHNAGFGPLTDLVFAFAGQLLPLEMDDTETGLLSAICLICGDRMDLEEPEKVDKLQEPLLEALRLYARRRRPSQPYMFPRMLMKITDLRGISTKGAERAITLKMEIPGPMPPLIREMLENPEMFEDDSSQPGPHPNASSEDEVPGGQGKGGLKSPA
Source text: (§1) A holoreceptor transactivation assay and a ligand binding assay which measure the antagonist/agonist like activity of the compounds of the invention, or their ability to bind to the several retinoid receptor subtypes, respectively, are described in published PCT Application No. WO WO93/11755 (particularly on pages 30-33 and 37-41) published on Jun. 24, 1993, the specification of which is also incorporated herein by reference. A detailed experimental procedure for holoreceptor transactivations has been described by Heyman et al. Cell 68, 397-406, (1992); Allegretto et al. J. Biol. Chem. 268, 26625-26633, and Mangelsdorf et al. The Retinoids: Biology, Chemistry and Medicine, pp 319-349, Raven Press Ltd., New York, which are expressly incorporated herein by reference. The results obtained in this assay are expressed in EC50 numbers, as they are also in the chimeric receptor transactivation assay. The results of ligand binding assay are expressed in Kd numbers. (See Cheng et al. Biochemical Pharmacology Vol. 22 pp 3099-3108, expressly incorporated herein by reference.)

RARα = molecular target: T2, RARα (Homo sapiens, UniProt P10276); experiment: ligand binding assay, RARα; conditions: RARα receptor subtype; read-out: RAR Kd (nM) α
T2 sequence (P10276 1-462): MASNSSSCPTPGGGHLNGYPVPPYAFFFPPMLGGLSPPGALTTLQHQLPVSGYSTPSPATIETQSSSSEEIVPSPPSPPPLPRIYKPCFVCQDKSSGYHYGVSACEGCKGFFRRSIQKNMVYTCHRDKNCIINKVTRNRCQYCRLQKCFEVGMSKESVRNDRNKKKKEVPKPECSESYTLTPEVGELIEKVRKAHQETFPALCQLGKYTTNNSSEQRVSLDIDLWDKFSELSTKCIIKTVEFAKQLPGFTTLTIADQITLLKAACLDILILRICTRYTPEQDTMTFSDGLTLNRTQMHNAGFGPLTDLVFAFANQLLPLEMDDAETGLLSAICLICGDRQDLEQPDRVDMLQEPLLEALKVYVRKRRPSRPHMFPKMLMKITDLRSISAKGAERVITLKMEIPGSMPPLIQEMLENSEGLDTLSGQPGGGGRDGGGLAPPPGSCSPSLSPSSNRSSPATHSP
Source text: as §1

RARβ = molecular target: T3, RARβ (Homo sapiens, UniProt P10826); experiment: ligand binding assay, RARβ; conditions: RARβ receptor subtype; read-out: RAR Kd (nM) β
T3 sequence (P10826 1-455): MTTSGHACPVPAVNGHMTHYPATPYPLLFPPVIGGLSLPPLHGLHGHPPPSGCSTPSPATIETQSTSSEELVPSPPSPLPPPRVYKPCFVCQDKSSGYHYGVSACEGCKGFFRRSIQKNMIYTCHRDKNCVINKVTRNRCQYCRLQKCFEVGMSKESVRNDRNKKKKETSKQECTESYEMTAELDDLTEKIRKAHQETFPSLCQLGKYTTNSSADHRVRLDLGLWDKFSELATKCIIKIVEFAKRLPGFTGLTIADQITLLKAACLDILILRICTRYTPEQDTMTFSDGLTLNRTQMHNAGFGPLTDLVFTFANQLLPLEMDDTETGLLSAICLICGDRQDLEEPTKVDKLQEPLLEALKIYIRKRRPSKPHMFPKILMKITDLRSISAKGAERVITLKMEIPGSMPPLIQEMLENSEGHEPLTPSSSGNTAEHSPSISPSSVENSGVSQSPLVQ
Source text: as §1

SMILES | Kd (RARγ) | Kd (RARα) | Kd (RARβ)
CC12CCC(C)(CC1)c1c2cc(C(=O)Nc2cc(F)c(C(=O)O)c(F)c2)c(O)c1Br [Compound 14, 4-[(6-Bromo-5-hydroxy-1,8-dimethyl-tricyclo[6.2.20^2,7]dodeca-2(7),3,5-trien-4-carbonyl)amino]-2,6-difluorobenzoic Acid] | > 10000 nM | 84 nM | > 10000 nM
CC12CCC(C)(CC1)c1cc(C(=O)Nc3ccc(C(=O)O)c(F)c3)c(O)cc12 [Compound 8, 2-Fluoro-4-[(5-hydroxy-1,8-dimethyl-tricyclo[6.2.20^2,7]dodeca-2(7),3,5-trien-4-carbonyl)amino]benzoic Acid] | > 10000 nM | 53 nM | 7200 nM
CC12CCC(C)(CC1)c1c2cc(C(=O)Nc2ccc(C(=O)O)c(F)c2)c(O)c1Br [Compound 10, 4-[(6-Bromo-5-hydroxy-1,8-dimethyl-tricyclo[6.2.20^2,7]dodeca-2(7),3,5-trien-4-carbonyl)amino]-2-fluorobenzoic Acid] | > 10000 nM | 32 nM | > 10000 nM
